Results from patent publication US12226405B2, “Compounds and compositions for inhibiting the activity of HIF2-alpha and their methods of use” (Novartis AG, priority 2020, dated 2025).

Tests used:
[1] = system: HIF2α-regulated expression of the endogenous target gene hEGLN3 in 786-O cells; assay: Cellular iScript assay for HIF2α (quantitative RT-PCR of hEGLN3); type: cell-based, human; details: Homo sapiens, 786-0, 48 hours incubation
Outline: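 786-O cells were exposed to eleven 2-fold compound dilutions for 48 h at 37° C. Lysates underwent one-step TaqMan qRT-PCR for hEGLN3 with beta-actin as reference; 2^(−ΔΔCt) versus DMSO, as % of control, was fit with a four-parameter model to give IC50.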

[2] = molecular target: HIF2α PAS-B domain (236-350, biotinylated on the N-terminus) (Homo sapiens (Human), UniProt Q99814)
Sequence of HIF2α PAS-B domain (236-350, biotinylated on the N-terminus) (Q99814 236-350): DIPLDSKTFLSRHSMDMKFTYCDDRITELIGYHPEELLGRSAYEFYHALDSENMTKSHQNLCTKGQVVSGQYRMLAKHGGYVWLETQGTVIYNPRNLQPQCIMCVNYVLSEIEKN
Experimental: The assay buffer contained 50 mM Tris-HCl pH7 (Sigma), 20 mM NaCl (Fluka), 0.02% BSA (Sigma), 0.005% Triton X-100 (Pierce) and 1 mM DTT (Fluka). After a 30 min incubation period, 5 μL Streptavidin PVT SPA Beads (Perkin Elmer) at 1.2 mg/mL, diluted in the buffer, were added.

[3] = system: HIF2α-dependent transcription in 786-O-HRE-Luc cells; assay: In vitro cellular hypoxia response element (HRE) reporter gene assay (RGA) for HIF2α; type: cell-based, human; details: Homo sapiens, 24 hours incubation
Outline: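 Renal carcinoma cells carrying a 4×HRE-driven PEST-destabilised firefly luciferase were treated a day after seeding with eleven 2-fold compound dilutions (0.1% DMSO) for 24 h at 37° C. BrightGlo luminescence, background-subtracted and expressed as % of DMSO control, was fitted four-parametrically for IC50.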

SMILES	IC50 [1] [nM]	IC50 [2] [nM]	IC50 [3] [nM]
COC1=CC(C(F)(F)F)=CN2C[C@@]3(CCC(F)(F)c4c3ccnc4Cl)N=C12 [Example 30, (S)-1′-chloro-8′,8′-difluoro-8-methoxy-6-(trifluoromethyl)-7′,8′-dihydro-3H,6′H-spiro[imidazo[1,2-a]pyridine-2,5′-isoquinoline]]	129	27	1350
Cc1nccc2c1C(F)(F)CC[C@@]21CN2C=C(C(F)(F)F)C=C(OC(F)F)C2=N1 [Example 32, (S)-8-(difluoromethoxy)-8′,8′-difluoro-1′-methyl-6-(trifluoromethyl)-7′,8′-dihydro-3H,6′H-spiro[imidazo[1,2-a]pyridine-2,5′-isoquinoline]]	78	13	861
[2H]C([2H])([2H])c1nccc2c1C(F)(F)CC[C@@]21CN2C=C(C(F)(F)F)C=C(OC(F)F)C2=N1 [Example 33, (S)-8-(difluoromethoxy)-8′,8′-difluoro-1′-(methyl-d3)-6-(trifluoromethyl)-7′,8′-dihydro-3H, 6′H-spiro[imidazo[1,2-a]pyridine-2,5′-isoquinoline]]	78	17	547
COc1nccc2c1C(F)(F)CC[C@@]21CN2C=C(C(F)(F)F)C=C(OC(F)F)C2=N1 [Example 34, (S)-8-(difluoromethoxy)-8′,8′-difluoro-1′-methoxy-6-(trifluoromethyl)-7′,8′-dihydro-3H, 6′H-spiro[imidazo[1,2-a]pyridine-2,5′-isoquinoline]]	197	23	1430
N#CC1=CN2C[C@@]3(CCCc4cc(F)ccc43)N=C2C(OC(F)F)=C1 [Example 35, (S)-8-(difluoromethoxy)-6′-fluoro-3′,4′-dihydro-2′H,3H-spiro[imidazo[1,2-a]pyridine-2,1′-naphthalene]-6-carbonitrile]	83	9	267
FC(F)OC1=CC(C(F)(F)F)=CN2C[C@@]3(CCCc4c3ccnc4Cl)N=C12 [Example 36, (S)-1′-chloro-8-(difluoromethoxy)-6-(trifluoromethyl)-7′,8′-dihydro-3H,6′H-spiro[imidazo[1,2-a]pyridine-2,5′-isoquinoline]]	73	6	147
FC(F)OC1=CC(C(F)(F)F)=CN2C[C@@]3(CCCc4cc(Cl)ncc43)N=C12 [Example 37, (S)-3′-chloro-8-(difluoromethoxy)-6-(trifluoromethyl)-6′,7′-dihydro-3H,5′H-spiro[imidazo[1,2-a]pyridine-2,8′-isoquinoline]]	89	25	308
N#Cc1ccc2c(c1)CCC[C@@]21CN2C=C(C(F)(F)F)C=C(OC(F)F)C2=N1 [Example 38, (S)-8-(difluoromethoxy)-6-(trifluoromethyl)-3′,4′-dihydro-2′H,3H-spiro[imidazo[1,2-a]pyridine-2,1′-naphthalene]-6′-carbonitrile]	84	12	322
Fc1c(Br)ccc2c1OCC[C@@]21CN2C=C(C(F)(F)F)C=C(OC(F)F)C2=N1 [Example 39, (S)-7-bromo-8′-(difluoromethoxy)-8-fluoro-6′-(trifluoromethyl)-3′H-spiro[chroman-4,2′-imidazo[1,2-a]pyridine]]	49	≤ 6	251
Fc1c(C(F)(F)F)ccc2c1OCC[C@@]21CN2C=C(C(F)(F)F)C=C(OC(F)F)C2=N1 [Example 40, (S)-8′-(difluoromethoxy)-8-fluoro-6′,7-bis(trifluromethyl)-3′H-spiro[chroman-4,2′-imidazo[1,2-a]pyridine]]	50	6	190
FC(F)OC1=CC(C(F)(F)F)=CN2C[C@@]3(CCOc4cc(Cl)ccc43)N=C12 [Example 41, (S)-7-chloro-8′-(difluoromethoxy)-6′-(trifluoromethyl)-3′H-spiro[chroman-4,2′-imidazo[1,2-a]pyridine]]	54	11	283
FCOC1=CC(C(F)(F)F)=CN2C[C@@]3(CCOc4c3ccc(Br)c4F)N=C12 [Example 42, (S)-7-bromo-8-fluoro-8′-(fluoromethoxy)-6′-(trifluoromethyl)-3′H-spiro[chroman-4,2′-imidazo[1,2-a]pyridine]]	72	8	96
Fc1c(Cl)ccc2c1OCC[C@@]21CN2C=C(C(F)(F)F)C=C(OC(F)F)C2=N1 [Example 43, (S)-7-chloro-8′-(difluoromethoxy)-8-fluoro-6′-(trifluoromethyl)-3′H-spiro[chroman-4,2′-imidazo[1,2-a]pyridine]]	59	10	180
Fc1ccc2c(c1F)OCC[C@@]21CN2C=C(C(F)(F)F)C=C(OC(F)F)C2=N1 [Example 45, (S)-8′-(difluoromethoxy)-7,8-difluoro-6′-(trifluoromethyl)-3′H-spiro[chroman-4,2′-imidazo[1,2-a]pyridine]]	85	≤ 10	313
Cc1ccc2c(c1F)OCC[C@@]21CN2C=C(C(F)(F)F)C=C(OC(F)F)C2=N1 [Example 46, (S)-8′-(difluoromethoxy)-8-fluoro-7-methyl-6′-(trifluoromethyl)-3′H-spiro[chroman-4,2′-imidazo[1,2-a]pyridine]]	50	13	68
Fc1cccc2c1OCC[C@@]21CN2C=C(C(F)(F)F)C=C(OC(F)F)C2=N1 [Example 47, (S)-8′-(difluoromethoxy)-8-fluoro-6′-(trifluoromethyl)-3′H-spiro[chroman-4,2′-imidazo[1,2-a]pyridine]]	82	11	694
FC(F)OC1=CC(C(F)(F)F)=CN2C[C@@]3(CCOc4c(Cl)cccc43)N=C12 [Example 48, (S)-8-chloro-8′-(difluoromethoxy)-6′-(trifluoromethyl)-3′H-spiro[chroman-4,2′-imidazo[1,2-a]pyridine]]	63	≤ 10	974
N#CC1=CN2C[C@@]3(CCOc4c3ccc(Br)c4F)N=C2C(OC(F)F)=C1 [Example 49, (S)-7-bromo-8′-(difluoromethoxy)-8-fluoro-3′H-spiro[chroman-4,2′-imidazo[1,2-a]pyridine]-6′-carbonitrile]	173	12	979
FC(F)OC1=CC(C(F)(F)F)=CN2C[C@@]3(CCOc4cc(Br)ccc43)N=C12 [Example 50, (S)-7-bromo-8′-(difluoromethoxy)-6′-(trifluoromethyl)-3′H-spiro[chroman-4,2′-imidazo[1,2-a]pyridine]]	61	≤ 10	153
N#CC1=CN2C[C@@]3(CCOc4c3ccc(I)c4F)N=C2C(OC(F)F)=C1 [Example 51, (S)-8′-(difluoromethoxy)-8-fluoro-7-iodo-3′H-spiro[chroman-4,2′-imidazo[1,2-a]pyridine]-6′-carbonitrile]	81	9	509
Fc1c(Br)ccc2c1OCC[C@@]21CN2C=C(Cl)C=C(OC(F)F)C2=N1 [Example 52, (S)-7-bromo-6′-chloro-8′-(difluoromethoxy)-8-fluoro-3′H-spiro[chroman-4,2′-imidazo[1,2-a]pyridine]]	87	11	416
